Source: PMC4355590, “A Kinetic Study of the Main Guaco Metabolites Using Syrup Formulation and the Identification of an Alternative Route of Coumarin Metabolism in Humans” (PLoS ONE, 2015)
In brackets after ≈: the same amount, converted by molar mass. Several values for one entry are separate records, joined by “and”; a condition that tells them apart may be missing. Equal entries are not always repeated. Where two headings read alike, the source gives them in different places. Marks after values point to notes of the source that are not given here.

Key:
[1] = test system: allergic airway inflammation; parameters: method as in PMID 19289114; settings: mice, 60 mg/kg; cited from earlier work
[2] = Pharmacokinetic study: volunteers orally received 60 mL of guaco syrup spiked with 1500 mg of COU, plasma by HPLC-MS/MS; type: in vivo, human
From the text: The weight ranged from 63 to 88 kg and the height from 1.65 to 1.80 m. The volunteers were submitted to the medical consultations and clinical analyses before their participation in the study. Only healthy volunteers (normal values of blood pressure and renal, hepatic, biochemical and hematological parameters) were eligible to participate in the study. […] The volunteers were informed about all the procedures and possible risks related to the study. All the volunteers provided written informed consent to participate in the study. […] All the volunteers fasted for 8 h prior to the administration of guaco syrup and blood collection. […] The anticoagulant used was tetrasodium edetate. […] The pharmacokinetic analysis was performed using a non-compartmental model, considering an extravascular administration route and using WinNonlin Professional software, version 5.3. The relationships among the areas under the curves (r areas = AUC0-t/AUC0-inf), were used to confirm the suitability of the experimental design. […] All the frozen (-40°C) human plasma samples from the volunteers were thawed at room temperature, and a 200 μL aliquot was transferred into 2 mL plastic centrifuge tubes. The analytes were extracted as follows. The 200 μL aliquots of thawed samples were spiked with 50 μL of acetonitrile/water (70:30 v/v) and 50 μL of the working IS solution to obtain a final concentration of 500 ng/mL of 6-methylcoumarin. The spiked samples were vortexed for 2 min, and a 1.5 mL aliquot of TBME was added to the tube. The samples were vortexed for 2 min and then submitted to centrifugation for 10 min (14000 rpm, -5°C). A 1.2 mL aliquot of each sample supernatant was transferred to a new plastic centrifuge tube, and TBME was evaporated at 40°C in a sample concentrator (CentriVap Labconco, Kansas City, EUA). The remaining samples were resuspended in 200 μL of acetonitrile/water (70:30 v/v) using a vortex mixer for 3 min. The 200 μL aliquots of the thawed samples were spiked with 50 μL of acetonitrile/water (70:30 v/v) and 50 μL of the working IS solution to obtain a final concentration of 500 ng/mL of prednisone (IS) and 1000 ng/mL of isoferulic acid (IS). The spiked samples were vortexed for 2 min, and a 1.5 mL of acetonitrile was added to the tube. The samples were vortexed for 2 min and then were submitted to centrifugation for 10 min (14000 rpm, -5°C). Each sample supernatant was transferred to a new plastic centrifuge tube, and acetonitrile was evaporated in a sample concentrator (40°C). The samples were resuspended in 200 μL of acetonitrile/water (70:30 v/v) using a vortex mixer for 3 min. […] The HPLC was connected to a CTC Sample Manager (Model 2777, Waters Corporation, Milford, USA) that was operated at room temperature. Acetonitrile and methanol were used as wash solvents. The HPLC system was coupled to an Applied Biosystems MDS Sciex API 3200 Triple Quadrupole Mass Spectrometer (Toronto, Canada), equipped with a Harvard 22 Dual Model syringe pump (Harvard Apparatus, South Natick, USA) and an electrospray ionization (ESI) source. […] For the positive ion mode, the mobile phase consisted of acetonitrile/water/formic acid (70:30:0.05 v/v/v) at an elution rate of 200 μL/min in an isocratic system. For the negative ion mode, the mobile phase consisted of a gradient of water (A) and acetonitrile/water 95:5 v/v (B), both containing 1 mM ammonium formate. The flow rate was maintained at 400 μL/min, and the gradient profile was as follows: t0-1.0min: […] A = 70%; and t5.1-9.0min: A = 70%. […] The injection volume was 20 μL, and the column temperature was maintained at 25°C for positive ion mode and at 35°C for negative ion mode. Data acquisition was performed with the MS Workstation by Analyst software, version 1.4.2 (ABSciex). Quantification was performed in Multiple Reaction Monitoring (MRM) mode, maintaining the dwell time at 300 and 400 ms for the positive and negative ion modes, respectively. […]

guinea pig tracheas = test system: guinea pig tracheas; parameters: method as in PMID 16084046; settings: cited from earlier work
[3] = parameters: method as in PMID 598421; settings: cited from earlier work
[4] = Second screening: 60 mL of guaco syrup spiked with 100, 500, 1000 or 1500 mg of COU; type: in vivo, human
Method: All the volunteers fasted for 8 h prior to the administration of guaco syrup and blood collection. Blood samples (3.0 mL) were collected (using flexible catheter 18–20G) before the syrup administration (zero min) and at fifteen time points after the syrup administration (10, 20, 30, 45, 60, 75, 90, 120, 150, 180, 240, 360, 480, 540 and 600 min). The anticoagulant used was tetrasodium edetate. All the samples were immediately centrifuged at 4000 rpm (5.0 min, room temperature), and the plasma was aliquoted and frozen at -40°C until analysis. The pharmacokinetic analysis was performed using a non-compartmental model, considering an extravascular administration route and using WinNonlin Professional software, version 5.3. The relationships among the areas under the curves (r areas = AUC0-t/AUC0-inf), were used to confirm the suitability of the experimental design. Values greater than 0.8 indicated an appropriate experimental design.

histamine inhalation = test system: histamine inhalation; parameters: method as in PMID 16084046; settings: guinea pigs; cited from earlier work
[5] = both sexes, human, plasma, po, 1500 mg, human plasma, 60 mL guaco syrup spiked with 1500 mg coumarin, n = 5, mean ± S.D.
[6] = both sexes, human, plasma, po, 1500 mg, human plasma, 60 mL guaco syrup spiked with 1500 mg coumarin, n = 5, mean ± S.D., read-out: Cmax
[7] = both sexes, human plasma, oral, 60 mL guaco syrup spiked with 1500 mg coumarin, n = 5, mean ± S.D.
[8] = human plasma, oral, 60 mL guaco syrup spiked with 1500 mg coumarin, n = 5, mean ± S.D.

| Structure (SMILES) | half-life [2, 5] [min] | Cmax [2, 6] [ng/mL] | AUC(0-inf) [2, 7] [ng·h/mL] | AUC(0-t) [2, 7] [ng·h/mL] | Tmax [2, 7] [h] | T1/2 [2, 8] | r areas (AUC0-t/AUC0-inf) [2, 8] | further results |
| --- | --- | --- | --- | --- | --- | --- | --- | --- |
| O=c1ccc2ccc(O)cc2o1 [7-HCOU, 7-hydroxycoumarin] | ~60 | 85 ± 40.1 | 134 ± 58 | 126 ± 54 | 1.4 ± 0.68 | 1.16 ± 0.82 ^a h | 0.95 ± 0.05 | attenuation of allergic airway inflammation [1]: significant attenuation; Kel (elimination rate constant) [2, 8]: 0.91 ± 0.59 h⁻¹ |
| O=c1ccc2ccccc2o1 [COU, 1,2 benzopyrone] | ~240 | 735 | 1460 ± 547 | 1340 ± 515 | 0.93 ± 0.57 | – | 0.92 ± 0.03 | EC50, relaxing effect (guinea pig tracheas; guinea pig tracheas pre-contracted with carbachol): 33.4 µg/mL (≈ 229 µM); EC50, relaxing effect (guinea pig tracheas; guinea pig tracheas pre-contracted with histamine): 35.0 µg/mL (≈ 239 µM); bioavailability [3]: 3.4%; time of peak absorption after syrup administration ([4]; all four volunteers, 100, 500, 1000 and 1500 mg COU): 10 min; Tmax ([4]; both sexes, human, plasma, oral, read-out: time of peak concentration in plasma): 0.75 to 2 h; concentration at 10 min ([4]; human, plasma, oral, 100 mg dosage, 10 min after syrup administration): 22.1 ng/mL; AD50 (adequate dose protecting 50% of the tested animals) (histamine inhalation): 75 mg/kg; clearance ([2]; both sexes, human, plasma, oral, 1500 mg, Cl/f multiplied by the bioavailability 0.034 of ref 32, read-out: estimated clearance (Cl = 1148.0 x 0.034) (converted)): 651 mL/min; Vd ([2]; both sexes, human, plasma, oral, 1500 mg, Vd/f multiplied by the bioavailability 0.034 of ref 32, read-out: estimated volume of distribution (Vd = 6733.0 x 0.034)): 229 L; Vd/F ([2]; both sexes, human plasma, oral, 60 mL guaco syrup spiked with 1500 mg coumarin, n = 5, mean ± S.D., read-out: Vd/f (apparent volume of distribution)): 6730 ± 3280 L; Cl/f (apparent clearance) [2, 8]: 1148.0 L/h and 1148.0 ± 411.0 L/h; Cmax [2, 8]: 735.46 ± 252.29 ng/mL |
| O=C(O)/C=C/c1ccccc1O [OCA, o-coumaric acid] | ~180 | 231 ± 187 | 518 ± 299 | 465 ± 299 | 1.45 ± 0.84 | 3.50 ± 0.83 ^b h | 0.87 ± 0.08 | – |
